From ChEMBL document CHEMBL3745672, “Novel compounds reducing IRS-1 serine phosphorylation for treatment of diabetes” (Bioorg Med Chem Lett, 2016)
Active and inactive are the calls of the source. No cut-off for these calls is given here.

Experiments:
[1] = molecular target: Hepatocyte growth factor receptor (Homo sapiens) (UniProt P08581); test: Inhibition of cMET (unknown origin) at 1 uM
[2] = molecular target: Mast/stem cell growth factor receptor Kit (Homo sapiens) (UniProt P10721); test: Inhibition of cKIT (unknown origin) at 1 uM
[3] = molecular target: Receptor tyrosine-protein kinase erbB-2 (Homo sapiens) (UniProt P04626); test: Inhibition of ERBB2 (unknown origin) at 1 uM
[4] = molecular target: Mitogen-activated protein kinase 8 (Rattus norvegicus) (UniProt P49185); test: Inhibition of JNK1 phosphorylation in rat RINm5F cells assessed as suppression of albumin-conjugated palmitate-induced IRS-1 Ser307 phosphorylation incubated for 8 hrs; assay type: cell-based; parameters: concentration or dose not given beside the values; details: concentration not given here
Chain of Mitogen-activated protein kinase 8 (Rattus norvegicus) (P49185 whole entry): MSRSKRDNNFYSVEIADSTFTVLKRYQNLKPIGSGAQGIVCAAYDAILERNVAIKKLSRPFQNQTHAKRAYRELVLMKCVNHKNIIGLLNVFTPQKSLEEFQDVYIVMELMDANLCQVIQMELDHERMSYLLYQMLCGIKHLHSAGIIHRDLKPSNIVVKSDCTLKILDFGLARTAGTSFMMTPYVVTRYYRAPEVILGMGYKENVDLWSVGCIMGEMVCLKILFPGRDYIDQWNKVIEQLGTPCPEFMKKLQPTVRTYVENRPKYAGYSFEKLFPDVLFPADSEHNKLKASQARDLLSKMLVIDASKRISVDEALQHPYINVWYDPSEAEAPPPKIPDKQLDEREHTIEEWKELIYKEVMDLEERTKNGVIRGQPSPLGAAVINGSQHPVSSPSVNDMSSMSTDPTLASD

[5] = molecular target: Vascular endothelial growth factor receptor 2 (Homo sapiens) (UniProt P35968); test: Inhibition of VEGFR2 (unknown origin) at 1 uM
[6] = molecular target: Serine/threonine-protein kinase PLK3 (Homo sapiens) (UniProt Q9H4B4); test: Inhibition of PLK3 (unknown origin) at 1 uM
Chain of Serine/threonine-protein kinase PLK3 (Homo sapiens) (Q9H4B4 whole entry, looked up, the tested form may be a part): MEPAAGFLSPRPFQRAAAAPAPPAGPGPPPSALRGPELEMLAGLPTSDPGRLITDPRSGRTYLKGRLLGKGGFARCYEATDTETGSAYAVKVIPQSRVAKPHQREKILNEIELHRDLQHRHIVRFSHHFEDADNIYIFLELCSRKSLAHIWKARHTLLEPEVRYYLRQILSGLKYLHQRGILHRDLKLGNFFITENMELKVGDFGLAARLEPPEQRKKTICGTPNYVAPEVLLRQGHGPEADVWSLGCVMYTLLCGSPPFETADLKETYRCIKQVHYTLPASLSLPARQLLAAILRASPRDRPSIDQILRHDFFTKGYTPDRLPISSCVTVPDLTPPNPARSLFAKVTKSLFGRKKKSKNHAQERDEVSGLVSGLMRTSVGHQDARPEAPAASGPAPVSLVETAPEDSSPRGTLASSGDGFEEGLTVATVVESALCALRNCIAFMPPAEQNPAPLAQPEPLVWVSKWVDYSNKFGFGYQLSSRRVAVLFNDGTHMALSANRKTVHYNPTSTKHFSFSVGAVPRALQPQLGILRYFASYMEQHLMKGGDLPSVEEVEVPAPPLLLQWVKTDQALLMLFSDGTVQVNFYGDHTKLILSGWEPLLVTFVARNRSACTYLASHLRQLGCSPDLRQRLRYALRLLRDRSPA

[7] = molecular target: Epithelial discoidin domain-containing receptor 1 (Homo sapiens) (UniProt Q08345); test: Inhibition of DDR1 (unknown origin) at 1 uM
Chain of Epithelial discoidin domain-containing receptor 1 (Homo sapiens) (Q08345 whole entry, the tested form may be a part): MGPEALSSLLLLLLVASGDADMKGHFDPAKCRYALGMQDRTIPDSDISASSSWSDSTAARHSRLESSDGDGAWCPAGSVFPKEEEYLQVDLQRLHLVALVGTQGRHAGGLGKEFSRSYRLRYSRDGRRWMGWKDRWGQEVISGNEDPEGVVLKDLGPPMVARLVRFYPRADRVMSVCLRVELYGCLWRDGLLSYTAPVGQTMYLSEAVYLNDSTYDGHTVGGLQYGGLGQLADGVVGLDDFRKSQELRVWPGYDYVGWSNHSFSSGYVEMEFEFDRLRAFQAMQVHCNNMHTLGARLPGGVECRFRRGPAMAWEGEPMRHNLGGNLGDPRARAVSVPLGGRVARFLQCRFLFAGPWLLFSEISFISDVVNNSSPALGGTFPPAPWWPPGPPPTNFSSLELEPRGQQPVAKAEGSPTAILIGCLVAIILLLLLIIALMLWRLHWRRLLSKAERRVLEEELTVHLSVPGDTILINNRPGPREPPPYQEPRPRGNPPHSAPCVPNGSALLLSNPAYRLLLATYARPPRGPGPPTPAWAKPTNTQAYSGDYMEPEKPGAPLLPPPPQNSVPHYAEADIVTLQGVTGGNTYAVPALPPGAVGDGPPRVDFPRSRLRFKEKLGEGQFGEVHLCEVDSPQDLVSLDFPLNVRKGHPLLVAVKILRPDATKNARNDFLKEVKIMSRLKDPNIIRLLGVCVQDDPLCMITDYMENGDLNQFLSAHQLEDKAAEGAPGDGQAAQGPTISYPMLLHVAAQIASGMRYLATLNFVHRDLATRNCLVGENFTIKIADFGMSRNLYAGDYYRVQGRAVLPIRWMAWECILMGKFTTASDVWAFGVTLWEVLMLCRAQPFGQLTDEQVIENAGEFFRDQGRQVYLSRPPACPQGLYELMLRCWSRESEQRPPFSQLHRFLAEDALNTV

[8] = molecular target: RAC-alpha serine/threonine-protein kinase (Homo sapiens) (UniProt P31749); test: Inhibition of AKT1 (unknown origin) at 1 uM
[9] = molecular target: Platelet-derived growth factor receptor beta (Homo sapiens) (UniProt P09619); test: Inhibition of PDGFRbeta (unknown origin) at 1 uM
[10] = molecular target: Tyrosine-protein kinase receptor UFO (Homo sapiens) (UniProt P30530); test: Inhibition of AXL (unknown origin) at 1 uM
[11] = molecular target: Fibroblast growth factor receptor 3 (Homo sapiens) (UniProt P22607); test: Inhibition of FGFR3 (unknown origin) at 1 uM
Chain of Fibroblast growth factor receptor 3 (Homo sapiens) (P22607 23-806 limits assumed): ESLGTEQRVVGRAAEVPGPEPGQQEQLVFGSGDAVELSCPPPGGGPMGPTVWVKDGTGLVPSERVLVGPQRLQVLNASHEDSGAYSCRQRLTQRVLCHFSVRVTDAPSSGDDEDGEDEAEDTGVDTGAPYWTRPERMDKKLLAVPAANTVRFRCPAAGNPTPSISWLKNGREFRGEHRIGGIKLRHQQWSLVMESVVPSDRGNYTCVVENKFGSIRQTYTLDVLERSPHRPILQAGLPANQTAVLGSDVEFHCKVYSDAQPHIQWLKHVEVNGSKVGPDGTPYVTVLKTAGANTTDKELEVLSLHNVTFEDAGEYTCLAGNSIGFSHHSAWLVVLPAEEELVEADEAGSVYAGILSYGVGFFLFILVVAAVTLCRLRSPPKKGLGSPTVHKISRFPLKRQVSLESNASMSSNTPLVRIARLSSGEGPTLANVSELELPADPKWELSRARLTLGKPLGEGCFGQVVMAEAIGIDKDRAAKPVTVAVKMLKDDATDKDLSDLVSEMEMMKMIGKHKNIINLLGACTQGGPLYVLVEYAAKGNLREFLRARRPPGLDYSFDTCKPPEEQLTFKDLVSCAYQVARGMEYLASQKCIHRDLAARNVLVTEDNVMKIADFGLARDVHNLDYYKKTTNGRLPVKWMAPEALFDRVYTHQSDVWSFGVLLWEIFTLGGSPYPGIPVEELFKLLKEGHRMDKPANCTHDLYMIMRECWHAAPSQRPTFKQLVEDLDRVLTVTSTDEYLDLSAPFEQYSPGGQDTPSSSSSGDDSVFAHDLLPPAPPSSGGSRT

[12] = molecular target: Protein kinase C alpha type (Homo sapiens) (UniProt P17252); test: Inhibition of PKCalpha (unknown origin) at 1 uM
[13] = molecular target: Rho-associated protein kinase 2 (Homo sapiens) (UniProt O75116); test: Inhibition of ROCK2 (unknown origin) at 1 uM
[14] = molecular target: Serine/threonine-protein kinase B-raf (Homo sapiens) (UniProt P15056); test: Inhibition of B-RAF (unknown origin) at 1 uM
Chain of Serine/threonine-protein kinase B-raf (Homo sapiens) (P15056 whole entry): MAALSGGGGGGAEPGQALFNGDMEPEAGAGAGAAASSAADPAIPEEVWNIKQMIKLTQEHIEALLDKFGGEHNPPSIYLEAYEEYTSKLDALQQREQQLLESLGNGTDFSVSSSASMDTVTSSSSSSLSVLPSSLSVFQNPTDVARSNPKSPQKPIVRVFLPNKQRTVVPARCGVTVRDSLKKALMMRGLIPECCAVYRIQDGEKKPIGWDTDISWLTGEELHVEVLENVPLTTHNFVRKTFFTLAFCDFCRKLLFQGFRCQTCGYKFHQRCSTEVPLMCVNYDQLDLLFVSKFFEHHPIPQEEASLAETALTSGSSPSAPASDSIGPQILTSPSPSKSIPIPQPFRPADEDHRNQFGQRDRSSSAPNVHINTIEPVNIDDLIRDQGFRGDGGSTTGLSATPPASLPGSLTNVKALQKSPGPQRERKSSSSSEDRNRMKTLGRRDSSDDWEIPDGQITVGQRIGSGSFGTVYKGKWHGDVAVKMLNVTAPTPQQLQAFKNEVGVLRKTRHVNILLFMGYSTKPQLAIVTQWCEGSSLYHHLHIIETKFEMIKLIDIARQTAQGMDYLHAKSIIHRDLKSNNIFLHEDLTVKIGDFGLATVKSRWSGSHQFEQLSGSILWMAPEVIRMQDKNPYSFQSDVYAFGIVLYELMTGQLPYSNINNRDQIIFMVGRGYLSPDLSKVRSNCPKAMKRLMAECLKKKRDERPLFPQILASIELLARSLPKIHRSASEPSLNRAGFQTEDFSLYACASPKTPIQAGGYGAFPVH

[15] = molecular target: Insulin receptor (Homo sapiens) (UniProt P06213); test: Inhibition of INSR (unknown origin) at 1 uM
[16] = molecular target: T1, Aurora kinase A (Homo sapiens) (UniProt O14965); test: Inhibition of AurA (unknown origin) at 1 uM
T1 sequence (whole entry): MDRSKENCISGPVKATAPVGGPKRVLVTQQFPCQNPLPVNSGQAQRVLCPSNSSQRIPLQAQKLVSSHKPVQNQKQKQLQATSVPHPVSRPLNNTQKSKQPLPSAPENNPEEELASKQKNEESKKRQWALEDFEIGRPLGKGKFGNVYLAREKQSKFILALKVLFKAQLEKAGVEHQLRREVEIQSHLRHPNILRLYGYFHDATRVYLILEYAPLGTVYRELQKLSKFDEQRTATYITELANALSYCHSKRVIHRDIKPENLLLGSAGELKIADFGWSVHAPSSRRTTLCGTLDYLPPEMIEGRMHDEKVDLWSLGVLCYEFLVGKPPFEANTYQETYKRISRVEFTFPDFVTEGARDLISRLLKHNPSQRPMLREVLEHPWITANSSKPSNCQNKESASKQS

[17] = molecular target: Serine/threonine-protein kinase PAK 4 (Homo sapiens) (UniProt O96013); test: Inhibition of PAK4 (unknown origin) at 1 uM
[18] = molecular target: Tyrosine-protein kinase CSK (Homo sapiens) (UniProt P41240); test: Inhibition of CSK (unknown origin) at 1 uM
[19] = molecular target: T2, Interleukin-1 receptor-associated kinase 4 (Homo sapiens) (UniProt Q9NWZ3); test: Inhibition of IRAK4 (unknown origin) at 1 uM
T2 sequence (whole entry): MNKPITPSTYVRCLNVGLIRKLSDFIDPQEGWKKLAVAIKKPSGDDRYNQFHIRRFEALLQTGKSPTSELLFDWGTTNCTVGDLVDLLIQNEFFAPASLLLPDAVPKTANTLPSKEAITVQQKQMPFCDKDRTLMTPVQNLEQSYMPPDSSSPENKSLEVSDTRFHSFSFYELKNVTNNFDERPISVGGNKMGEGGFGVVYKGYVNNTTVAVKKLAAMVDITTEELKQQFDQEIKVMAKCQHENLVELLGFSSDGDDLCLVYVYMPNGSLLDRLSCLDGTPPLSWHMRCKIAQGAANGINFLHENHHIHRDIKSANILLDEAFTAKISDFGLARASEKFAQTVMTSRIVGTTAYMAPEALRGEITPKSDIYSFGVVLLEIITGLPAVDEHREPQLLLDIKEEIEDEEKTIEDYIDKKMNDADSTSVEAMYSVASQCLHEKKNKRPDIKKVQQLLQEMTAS

[20] = molecular target: Mitogen-activated protein kinase 8 (Homo sapiens, UniProt P45983); test: Inhibition of JNK1 (unknown origin) at 1 uM
[21] = molecular target: Mitogen-activated protein kinase 3 (Homo sapiens) (UniProt P27361); test: Inhibition of ERK1 (unknown origin) at 1 uM
[22] = molecular target: Tyrosine-protein kinase ABL1 (Homo sapiens) (UniProt P00519); test: Inhibition of ABL (unknown origin) at 1 uM
[23] = molecular target: Proto-oncogene tyrosine-protein kinase receptor Ret (Homo sapiens) (UniProt P07949); test: Inhibition of RET (unknown origin) at 1 uM
[24] = molecular target: Mitogen-activated protein kinase 8 (Rattus norvegicus) (UniProt P49185); test: Inhibition of albumin-conjugated palmitate-induced JNK1/2 phosphorylation assessed as JNK phosphorylation level in rat RINm5F cells incubated for 8 hrs; assay type: cell-based
[25] = molecular target: Death-associated protein kinase 3 (Homo sapiens) (UniProt O43293); test: Inhibition of DAPK3 (unknown origin) at 1 uM
[26] = molecular target: Serine/threonine-protein kinase pim-1 (Homo sapiens) (UniProt P11309); test: Inhibition of PIM1 (unknown origin) at 1 uM
[27] = molecular target: Serine/threonine-protein kinase mTOR (Homo sapiens) (UniProt P42345); test: Inhibition of mTOR (unknown origin) at 1 uM
[28] = molecular target: Proto-oncogene tyrosine-protein kinase Src (Homo sapiens) (UniProt P12931); test: Inhibition of SRC (unknown origin) at 1 uM
[29] = molecular target: CDK2/Cyclin A2 (Homo sapiens) (UniProt P24941+P20248); test: Inhibition of CDK2/CyclinA (unknown origin) at 1 uM; assay type: protein-complex assay

Chain of Hepatocyte growth factor receptor (Homo sapiens) (P08581 whole entry): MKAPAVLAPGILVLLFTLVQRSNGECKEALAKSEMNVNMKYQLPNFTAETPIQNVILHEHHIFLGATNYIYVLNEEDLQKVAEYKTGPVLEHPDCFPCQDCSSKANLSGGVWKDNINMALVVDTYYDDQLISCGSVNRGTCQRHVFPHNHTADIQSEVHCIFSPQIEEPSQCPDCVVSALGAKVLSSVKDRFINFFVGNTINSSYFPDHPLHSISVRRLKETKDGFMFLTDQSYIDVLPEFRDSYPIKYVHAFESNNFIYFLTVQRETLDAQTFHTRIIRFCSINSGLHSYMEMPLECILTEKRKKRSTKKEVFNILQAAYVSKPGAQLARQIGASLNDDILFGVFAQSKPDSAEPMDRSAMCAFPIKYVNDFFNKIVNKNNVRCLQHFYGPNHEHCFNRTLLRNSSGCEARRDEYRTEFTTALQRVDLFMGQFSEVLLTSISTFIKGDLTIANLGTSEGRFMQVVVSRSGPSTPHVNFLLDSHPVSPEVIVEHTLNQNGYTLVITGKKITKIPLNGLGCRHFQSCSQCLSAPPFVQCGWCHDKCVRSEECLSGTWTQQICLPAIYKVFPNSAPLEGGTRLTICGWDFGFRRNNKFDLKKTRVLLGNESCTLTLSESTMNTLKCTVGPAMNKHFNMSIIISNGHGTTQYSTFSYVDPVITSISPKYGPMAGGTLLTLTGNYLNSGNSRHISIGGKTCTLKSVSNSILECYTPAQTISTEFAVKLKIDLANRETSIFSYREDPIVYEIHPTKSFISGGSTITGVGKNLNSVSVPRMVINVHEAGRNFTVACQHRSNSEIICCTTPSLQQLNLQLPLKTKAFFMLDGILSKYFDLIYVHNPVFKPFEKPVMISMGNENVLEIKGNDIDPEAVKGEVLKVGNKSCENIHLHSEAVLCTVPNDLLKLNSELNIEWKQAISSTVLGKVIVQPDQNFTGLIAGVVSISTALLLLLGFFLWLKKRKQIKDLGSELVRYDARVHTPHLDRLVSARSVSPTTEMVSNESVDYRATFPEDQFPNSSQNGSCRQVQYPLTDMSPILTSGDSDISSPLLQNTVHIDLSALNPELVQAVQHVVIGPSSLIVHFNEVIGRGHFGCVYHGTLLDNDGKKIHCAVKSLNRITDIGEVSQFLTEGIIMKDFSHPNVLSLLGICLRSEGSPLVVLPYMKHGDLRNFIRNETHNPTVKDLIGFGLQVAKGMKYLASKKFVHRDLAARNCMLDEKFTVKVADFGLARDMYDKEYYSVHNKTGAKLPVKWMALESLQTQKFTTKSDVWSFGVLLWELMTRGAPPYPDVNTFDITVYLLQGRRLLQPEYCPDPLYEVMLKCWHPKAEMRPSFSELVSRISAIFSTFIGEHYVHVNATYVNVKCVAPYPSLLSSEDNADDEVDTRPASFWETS

Q: How did the inhibition [1] turn out when `Cn1c(=O)c(Oc2ccc(F)cc2F)cc2cnc(NC3CCN(S(N)(=O)=O)CC3)nc21` was run?
A: The inhibition was 22%.

Q: And the inhibition [2]?
A: Its inhibition is 17%.

Q: And the inhibition [3]?
A: Its inhibition is 4%.

Q: What about the inhibition [4] of the same molecule?
A: The inhibition was 96%.

Q: And the inhibition [5]?
A: Its inhibition is 9%.

Q: And the inhibition [6]?
A: Its inhibition is 4%.

Q: What about the inhibition [7] of the same molecule?
A: Its inhibition is 85%.

Q: What about the inhibition [8] of the same molecule?
A: Its inhibition is 8%.

Q: And the inhibition [9]?
A: The inhibition was 13%.

Q: And the inhibition [10]?
A: Its inhibition is 16%.

Q: And the inhibition [11]?
A: The inhibition was 5%.

Q: And the inhibition [12]?
A: Its inhibition is 10%.

Q: What about the inhibition [13] of the same molecule?
A: Its inhibition is 13%.

Q: What about the inhibition [14] of the same molecule?
A: The inhibition was 18%.

Q: What about the inhibition [15] of the same molecule?
A: Its inhibition is 11%.

Q: And the inhibition [16]?
A: The inhibition was 1%.

Q: What about the inhibition [17] of the same molecule?
A: Its inhibition is 32%.

Q: And the inhibition [18]?
A: The inhibition was 22%.

Q: And the inhibition [19]?
A: Its inhibition is 8%.

Q: And the inhibition [20]?
A: Its inhibition is 71%.

Q: What about the inhibition [21] of the same molecule?
A: Its inhibition is 16%.

Q: And the inhibition [22]?
A: The inhibition was 17%.

Q: And the inhibition [23]?
A: The inhibition was 30%.

Q: And the inhibition [24]?
A: Its inhibition is “inactive”.

Q: What about the inhibition [25] of the same molecule?
A: The inhibition was 0%.

Q: And the inhibition [26]?
A: The inhibition was 6%.

Q: What about the inhibition [27] of the same molecule?
A: The inhibition was 9%.

Q: What about the inhibition [28] of the same molecule?
A: Its inhibition is 7%.

Q: What about the inhibition [29] of the same molecule?
A: Its inhibition is 10%.
